Laboratory results published in patent US12522602B2, “Derivatives having 2,3-dihydro-1H-indene or 2,3-dihydrobenzofuran moiety or pharmaceutically acceptable salt thereof and pharmaceutical compositions comprising the same” (YUHAN CORPORATION, priority 2019, dated 2026).
pIC50: −log10 of the molar value.

Tested on: GM1 production in Jurkat cells
Test: cells
Format: cell-based
Details: Homo sapiens, Jurkat, 72 h

| SMILES | pIC50 |
| --- | --- |
| CC1(C)Cc2cc(-c3ccc4c(c3)OCCCO4)ccc2C1NC(=O)O[C@@H]1CN2CCC1CC2 (stereo partly drawn) [Example 154, (S)-quinuclidin-3-yl (5-(3,4-dihydro-2H-benzo[b][1,4]dioxepin-7-yl)-2,2-dimethyl-2,3-dihydro-1H-inden-1-yl)carbamate] | 7.56 |
| CC1(C)Cc2cc(-c3ccnc(C(F)(F)F)c3)ccc2C1NC(=O)O[C@@H]1CN2CCC1CC2 (stereo partly drawn) [Example 118, (S)-quinuclidin-3-yl (2,2-dimethyl-5-(2-(trifluoromethyl)pyridin-4-yl)-2,3-dihydro-1H-inden-1-yl)carbamate] | 7.42 |
| CC(C)(C)c1cccc(-c2cc3c(cc2F)C(NC(=O)O[C@@H]2CN4CCC2CC4)C(C)(C)C3)c1 (stereo partly drawn) [Example 374, (S)-quinuclidin-3-yl (5-(3-(tert-butyl)phenyl)-6-fluoro-2,2-dimethyl-2,3-dihydro-1H-inden-1-yl)carbamate] | 7.58 |
| COCc1ccc(-c2ccc3c(c2)CC(C)(C)C3NC(=O)O[C@@H]2CN3CCC2CC3)cc1 (stereo partly drawn) [Example 149, (S)-quinuclidin-3-yl (5-(4-(methoxymethyl)phenyl)-2,2-dimethyl-2,3-dihydro-1H-inden-1-yl)carbamate] | 7.56 |
| COc1ccc(-c2cc3c(cc2F)C(NC(=O)O[C@@H]2CN4CCC2CC4)C(C)(C)C3)c(Cl)c1 (stereo partly drawn) [Example 386, (S)-quinuclidin-3-yl (5-(2-chloro-4-methoxyphenyl)-6-fluoro-2,2-dimethyl-2,3-dihydro-1H-inden-1-yl)carbamate] | 7.53 |
| CCC1(CC)Cc2cc(-c3ccc4c(c3)OC(F)(F)O4)ccc2C1NC(=O)O[C@@H]1CN2CCC1CC2 (stereo partly drawn) [Example 309, (S)-quinuclidin-3-yl (5-(2,2-difluorobenzo[d][1,3]dioxol-5-yl)-2,2-diethyl-2,3-dihydro-1H-inden-1-yl)carbamate] | 7.95 |
| O=C(NC1CCc2ccc(-c3ccc(Cl)cc3)cc21)O[C@@H]1CN2CCC1CC2 (stereo partly drawn) [Example 26, (S)-quinuclidin-3-yl (6-(4-chlorophenyl)-2,3-dihydro-1H-inden-1-yl)carbamate] | 7.17 |
| CC1(C)Cc2ccc(-c3cccc(C(F)(F)F)c3)cc2C1NC(=O)O[C@@H]1CN2CCC1CC2 (stereo partly drawn) [Example 55, (S)-quinuclidin-3-yl (2,2-dimethyl-6-(3-(trifluoromethyl)phenyl)-2,3-dihydro-1H-inden-1-yl)carbamate] | 6.76 |
| CCC1(CC)Cc2cc(-c3ccc(CC(C)C)cc3)ccc2C1NC(=O)O[C@@H]1CN2CCC1CC2 (stereo partly drawn) [Example 287, (S)-quinuclidin-3-yl (2,2-diethyl-5-(4-isobutylphenyl)-2,3-dihydro-1H-inden-1-yl)carbamate] | 8.39 |
| O=C(NC1CCc2cc(-c3ccc(F)cc3F)ccc21)O[C@@H]1CN2CCC1CC2 (stereo partly drawn) [Example 16, (S)-quinuclidin-3-yl (5-(2,4-difluorophenyl)-2,3-dihydro-1H-inden-1-yl)carbamate] | 7.25 |
| O=C(NC1CCc2cc(-c3ccc(C(F)(F)F)cc3)ccc21)O[C@@H]1CN2CCC1CC2 (stereo partly drawn) [Example 3, (S)-quinuclidin-3-yl (5-(4-(trifluoromethyl)phenyl)-2,3-dihydro-1H-inden-1-yl)carbamate] | 6.85 |
| CC1(C)Cc2cc(-c3ccc(OCCF)cc3)ccc2C1NC(=O)O[C@@H]1CN2CCC1CC2 (stereo partly drawn) [Example 115, (S)-quinuclidin-3-yl (5-(4-(2-fluoroethoxy)phenyl)-2,2-dimethyl-2,3-dihydro-1H-inden-1-yl)carbamate] | 7.42 |
| CCC1(CC)Cc2cc(-c3cccc(OC(C)C)c3)ccc2C1NC(=O)O[C@@H]1CN2CCC1CC2 (stereo partly drawn) [Example 291, (S)-quinuclidin-3-yl (2,2-diethyl-5-(3-isopropoxyphenyl)-2,3-dihydro-1H-inden-1-yl)carbamate] | 7.87 |
| CC(C)Oc1ccccc1-c1ccc2c(c1)CC(C)(C)C2NC(=O)O[C@@H]1CN2CCC1CC2 (stereo partly drawn) [Example 145, (S)-quinuclidin-3-yl (5-(2-isopropoxyphenyl)-2,2-dimethyl-2,3-dihydro-1H-inden-1-yl)carbamate] | 7.64 |
| CCCCOc1cccc(-c2cc3c(cc2OC)C(NC(=O)O[C@@H]2CN4CCC2CC4)C(C)(C)C3)c1 (stereo partly drawn) [Example 342, (S)-quinuclidin-3-yl (5-(3-butoxyphenyl)-6-methoxy-2,2-dimethyl-2,3-dihydro-1H-inden-1-yl)carbamate] | 7.67 |
| COc1cc2c(cc1-c1cccc(OC(C)C)c1)CC(C)(C)C2NC(=O)O[C@@H]1CN2CCC1CC2 (stereo partly drawn) [Example 341, (S)-quinuclidin-3-yl (5-(3-isopropoxyphenyl)-6-methoxy-2,2-dimethyl-2,3-dihydro-1H-inden-1-yl)carbamate] | 7.21 |
| CC1(C)Oc2cc(-c3cccc(C(F)(F)F)c3)ccc2C1NC(=O)O[C@@H]1CN2CCC1CC2 (stereo partly drawn) [Example 409, (S)-quinuclidin-3-yl (2,2-dimethyl-6-(3-(trifluoromethyl)phenyl)-2,3-dihydrobenzofuran-3-yl)carbamate] | 7.83 |
| Cc1ccc(-c2ccc3c(c2)C(NC(=O)O[C@@H]2CN4CCC2CC4)CC3)cc1 (stereo partly drawn) [Example 38, (S)-quinuclidin-3-yl (6-(p-tolyl)-2,3-dihydro-1H-inden-1-yl)carbamate] | 7.21 |

| SMILES | pIC50 |
| --- | --- |
| CCOc1cccc(-c2ccc3c(c2)CC(C)(C)C3NC(=O)O[C@@H]2CN3CCC2CC3)c1 (stereo partly drawn) [Example 104, (S)-quinuclidin-3-yl (5-(3-ethoxyphenyl)-2,2-dimethyl-2,3-dihydro-1H-inden-1-yl)carbamate] | 7.77 |
| O=C(NC1CCc2cc(-c3cccc(F)c3)ccc21)O[C@@H]1CN2CCC1CC2 (stereo partly drawn) [Example 5, (S)-quinuclidin-3-yl (5-(3-fluorophenyl)-2,3-dihydro-1H-inden-1-yl)carbamate] | 7.15 |
| COc1cc2c(cc1-c1cccc(C(C)(C)C)c1)CC(C)(C)C2NC(=O)O[C@@H]1CN2CCC1CC2 (stereo partly drawn) [Example 337, (S)-quinuclidin-3-yl (5-(3-(tert-butyl)phenyl)-6-methoxy-2,2-dimethyl-2,3-dihydro-1H-inden-1-yl)carbamate] | 7.19 |
| COc1cccc(OC)c1-c1cc2c(cc1F)C(NC(=O)O[C@@H]1CN3CCC1CC3)C(C)(C)C2 (stereo partly drawn) [Example 383, (S)-quinuclidin-3-yl (5-(2,6-dimethoxyphenyl)-6-fluoro-2,2-dimethyl-2,3-dihydro-1H-inden-1-yl)carbamate] | 6.91 |
| CCC1(CC)Cc2cc(-c3cccc(OC)c3)ccc2C1NC(=O)O[C@@H]1CN2CCC1CC2 (stereo partly drawn) [Example 289, (S)-quinuclidin-3-yl (2,2-diethyl-5-(3-methoxyphenyl)-2,3-dihydro-1H-inden-1-yl)carbamate] | 8.13 |
| CCCOc1ccc(-c2cc3c(cc2F)C(NC(=O)O[C@@H]2CN4CCC2CC4)C(C)(C)C3)cc1 (stereo partly drawn) [Example 357, (S)-quinuclidin-3-yl (6-fluoro-2,2-dimethyl-5-(4-propoxyphenyl)-2,3-dihydro-1H-inden-1-yl)carbamate] | 8.28 |
| O=C(NC1CCc2ccc(-c3cc(F)c(F)cc3F)cc21)O[C@@H]1CN2CCC1CC2 (stereo partly drawn) [Example 44, (S)-quinuclidin-3-yl (6-(2,4,5-trifluorophenyl)-2,3-dihydro-1H-inden-1-yl)carbamate] | 7.45 |
| COCCOc1ccc(-c2ccc3c(c2)C(NC(=O)O[C@@H]2CN4CCC2CC4)C(C)(C)C3)cc1 (stereo partly drawn) [Example 72, (S)-quinuclidin-3-yl (6-(4-(2-methoxyethoxy)phenyl)-2,2-dimethyl-2,3-dihydro-1H-inden-1-yl)carbamate] | 7.24 |
| Cc1cccc(-c2ccc3c(c2)CC(C)(C)C3NC(=O)O[C@@H]2CN3CCC2CC3)c1F (stereo partly drawn) [Example 243, (S)-quinuclidin-3-yl (5-(2-fluoro-3-methylphenyl)-2,2-dimethyl-2,3-dihydro-1H-inden-1-yl)carbamate] | 7.67 |
| COc1ccc(Cl)c(-c2ccc3c(c2)CC(C)(C)C3NC(=O)O[C@@H]2CN3CCC2CC3)c1 (stereo partly drawn) [Example 121, (S)-quinuclidin-3-yl (5-(2-chloro-5-methoxyphenyl)-2,2-dimethyl-2,3-dihydro-1H-inden-1-yl)carbamate] | 8.33 |
| CCC1(CC)Cc2cc(-c3cc(OC)ccc3OC)ccc2C1NC(=O)O[C@@H]1CN2CCC1CC2 (stereo partly drawn) [Example 297, (S)-quinuclidin-3-yl (5-(2,5-dimethoxyphenyl)-2,2-diethyl-2,3-dihydro-1H-inden-1-yl)carbamate] | 8.52 |
| CC1(C)Cc2cc(-c3cccc(-c4ccccc4)c3)ccc2C1NC(=O)O[C@@H]1CN2CCC1CC2 (stereo partly drawn) [Example 190, (S)-quinuclidin-3-yl (5-([1,1′-biphenyl]-3-yl)-2,2-dimethyl-2,3-dihydro-1H-inden-1-yl)carbamate] | 7.88 |
| CC(C)COc1ccc(-c2ccc3c(c2)CC(C)(C)C3NC(=O)O[C@@H]2CN3CCC2CC3)cn1 (stereo partly drawn) [Example 268, (S)-quinuclidin-3-yl (5-(6-isobutoxypyridin-3-yl)-2,2-dimethyl-2,3-dihydro-1H-inden-1-yl)carbamate] | 8.60 |
| CC1(C)Cc2cc(-c3cc(OC(F)(F)F)ccc3Cl)ccc2C1NC(=O)O[C@@H]1CN2CCC1CC2 (stereo partly drawn) [Example 178, (S)-quinuclidin-3-yl (5-(2-chloro-5-(trifluoromethoxy)phenyl)-2,2-dimethyl-2,3-dihydro-1H-inden-1-yl)carbamate] | 7.57 |
| CCC1(CC)Cc2cc(-c3cccc(C(C)C)c3)ccc2C1NC(=O)O[C@@H]1CN2CCC1CC2 (stereo partly drawn) [Example 293, (S)-quinuclidin-3-yl (2,2-diethyl-5-(3-isopropylphenyl)-2,3-dihydro-1H-inden-1-yl)carbamate] | 8.06 |
| CCC1(CC)Cc2cc(-c3cc(OC)cc(OC)c3)ccc2C1NC(=O)O[C@@H]1CN2CCC1CC2 (stereo partly drawn) [Example 299, (S)-quinuclidin-3-yl (5-(3,5-dimethoxyphenyl)-2,2-diethyl-2,3-dihydro-1H-inden-1-yl)carbamate] | 7.60 |
| CC1(C)Cc2cc(-c3ccc(Cl)c(F)c3)ccc2C1NC(=O)O[C@@H]1CN2CCC1CC2 (stereo partly drawn) [Example 242, (S)-quinuclidin-3-yl (5-(4-chloro-3-fluorophenyl)-2,2-dimethyl-2,3-dihydro-1H-inden-1-yl)carbamate] | 7.19 |
| COc1ccc(-c2cc3c(cc2F)C(NC(=O)O[C@@H]2CN4CCC2CC4)C(C)(C)C3)c(OC)c1 (stereo partly drawn) [Example 381, (S)-quinuclidin-3-yl (5-(2,4-dimethoxyphenyl)-6-fluoro-2,2-dimethyl-2,3-dihydro-1H-inden-1-yl)carbamate] | 7.22 |
